Data: patent publication US9113629B2, “4-amino-6-(4-substituted-phenyl)-picolinates and 6-amino-2-(4-substituted-phenyl)-pyrimidine-4-carboxylates and their use as herbicides” (DOW AGROSCIENCES LLC, priority 2013, dated 2015)
Where two headings read alike, the source gives them in different places.

Assays:
[1] = test system: Key Broadleaf Weed and Crop Species; test: Post-emergent Test II herbicidal activity (Table 5); type: in vivo; settings: post-emergence, 336 h, post-emergent, 14 days after application; for pest or weed control at 70 g/ha: 70 g ai/ha; for pest or weed control at 140 g/ha: 140 g ai/ha
Method in brief: (§1)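 Post-emergence foliar spray, 187 L/ha, track sprayer at 43 cm above canopy. Carrier: acetone/water/IPA/DMSO/Atplus 411F/Triton X-155. Plants at 1st–2nd true leaf; subirrigated afterwards; % injury scored visually at 14 d.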

[2] = test system: Key Grass and Sedge Weeds as well as Grass Crops; test: Post-emergent Test II herbicidal activity (Table 6); type: in vivo; settings: post-emergence, 336 h; for pest or weed control at 70 g/ha: application rate 70 g ai/ha; for pest or weed control at 140 g/ha: application rate 140 g ai/ha
Method in brief: as §1

[3] = ABUTH: velvetleaf (Abutilon theophrasti), read-out: Visual Growth Reduction (%) 14 Days After Application ABUTH
[4] = AMARE: redroot pigweed (Amaranthus retroflexus), read-out: Visual Growth Reduction (%) 14 Days After Application AMARE
[5] = BRSNN: oilseed-rape, canola (Brassica napus), read-out: Visual Growth Reduction (%) 14 Days After Application BRSNN
[6] = CHEAL: lambsquarters (Chenopodium album), read-out: Visual Growth Reduction (%) 14 Days After Application CHEAL
[7] = EPHHL: wild poinsettia (Euphorbia heterophylla), read-out: Visual Growth Reduction (%) 14 Days After Application EPHHL
[8] = HELAN: sunflower (Helianthus annuus), read-out: Visual Growth Reduction (%) 14 Days After Application HELAN
[9] = VIOTR: wild pansy (Viola tricolor), read-out: Visual Growth Reduction (%) 14 Days After Application VIOTR
[10] = CYPES: yellow nutsedge (Cyperus esculentus), read-out: Visual Growth Reduction (%) 14 Days After Application, CYPES
[11] = DIGSA: crabgrass (Digitaria sanguinalis), read-out: Visual Growth Reduction (%) 14 Days After Application, DIGSA
[12] = ECHCG: barnyardgrass (Echinochloa crus-galli), read-out: Visual Growth Reduction (%) 14 Days After Application, ECHCG
[13] = ORYSA: rice (Oryza sativa), read-out: Visual Growth Reduction (%) 14 Days After Application, ORYSA
[14] = SETFA: giant foxtail (Setaria faberi), read-out: Visual Growth Reduction (%) 14 Days After Application, SETFA
[15] = SORVU: grain sorghum (Sorghum vulgare), read-out: Visual Growth Reduction (%) 14 Days After Application, SORVU
[16] = TRZSS (wheat, Triticum aestivum), read-out: Visual Growth Reduction (%) 14 Days After Application, TRZSS
[17] = ZEAMX: maize, corn (Zea mays), read-out: Visual Growth Reduction (%) 14 Days After Application, ZEAMX

With `COC(=O)c1nc(-c2cc(F)c(C#N)cc2F)c(F)c(N)c1Cl` [Compound 198] as the molecule, how does the pest or weed control at 70 g/ha [1, 3] read?
Its pest or weed control at 70 g/ha is 60 to 74%.

And the pest or weed control at 140 g/ha [1, 3]?
Its pest or weed control at 140 g/ha is 75 to 84%.

And the pest or weed control at 70 g/ha [1, 4]?
Its pest or weed control at 70 g/ha is 60 to 74%.

What about the pest or weed control at 140 g/ha [1, 4] of the same molecule?
Its pest or weed control at 140 g/ha is 95 to 100%.

What about the pest or weed control at 70 g/ha [1, 5] of the same molecule?
The pest or weed control at 70 g/ha was 75 to 84%.

What about the pest or weed control at 140 g/ha [1, 5] of the same molecule?
The pest or weed control at 140 g/ha was 75 to 84%.

What about the pest or weed control at 70 g/ha [1, 6] of the same molecule?
Its pest or weed control at 70 g/ha is 85 to 94%.

What about the pest or weed control at 140 g/ha [1, 6] of the same molecule?
Its pest or weed control at 140 g/ha is 95 to 100%.

And the pest or weed control at 70 g/ha [1, 7]?
Its pest or weed control at 70 g/ha is 45 to 59%.

And the pest or weed control at 140 g/ha [1, 7]?
The pest or weed control at 140 g/ha was 60 to 74%.

And the pest or weed control at 70 g/ha [1, 8]?
Its pest or weed control at 70 g/ha is 95 to 100%.

And the pest or weed control at 140 g/ha [1, 8]?
Its pest or weed control at 140 g/ha is 95 to 100%.

And the pest or weed control at 70 g/ha [1, 9]?
The pest or weed control at 70 g/ha was 30 to 44%.

What about the pest or weed control at 140 g/ha [1, 9] of the same molecule?
The pest or weed control at 140 g/ha was 60 to 74%.

What about the pest or weed control at 70 g/ha [2, 10] of the same molecule?
Its pest or weed control at 70 g/ha is 60 to 74%.

And the pest or weed control at 140 g/ha [2, 10]?
Its pest or weed control at 140 g/ha is 60 to 74%.

What about the pest or weed control at 70 g/ha [2, 11] of the same molecule?
Its pest or weed control at 70 g/ha is 0 to 29%.

What about the pest or weed control at 140 g/ha [2, 11] of the same molecule?
Its pest or weed control at 140 g/ha is 0 to 29%.

And the pest or weed control at 70 g/ha [2, 12]?
Its pest or weed control at 70 g/ha is 0 to 29%.

And the pest or weed control at 140 g/ha [2, 12]?
The pest or weed control at 140 g/ha was 0 to 29%.

What about the pest or weed control at 70 g/ha [2, 13] of the same molecule?
Its pest or weed control at 70 g/ha is 0 to 29%.

And the pest or weed control at 140 g/ha [2, 13]?
Its pest or weed control at 140 g/ha is 0 to 29%.

And the pest or weed control at 70 g/ha [2, 14]?
The pest or weed control at 70 g/ha was 0 to 29%.

And the pest or weed control at 140 g/ha [2, 14]?
Its pest or weed control at 140 g/ha is 0 to 29%.

What about the pest or weed control at 70 g/ha [2, 15] of the same molecule?
Its pest or weed control at 70 g/ha is 0 to 29%.

And the pest or weed control at 140 g/ha [2, 15]?
The pest or weed control at 140 g/ha was 0 to 29%.

And the pest or weed control at 70 g/ha [2, 16]?
The pest or weed control at 70 g/ha was 30 to 44%.

And the pest or weed control at 140 g/ha [2, 16]?
Its pest or weed control at 140 g/ha is 45 to 59%.

And the pest or weed control at 70 g/ha [2, 17]?
Its pest or weed control at 70 g/ha is 0 to 29%.

And the pest or weed control at 140 g/ha [2, 17]?
Its pest or weed control at 140 g/ha is 0 to 29%.
